Laboratory results reported in patent US20050288292A1, “Pharmaceutical formulation and its use in the treatment of inner ear diseases” (priority 2002, published 2005).

Tests used:
[1] = system: muscular tinnitus (myognathic tinnitus); experiment: Intravenous Caroverin in muscular (myognathic) tinnitus; type: in vivo; settings: intravenous administration
Excerpt: In addition, new trials by the inventor have shown that Caroverin is not indicated for the treatment of all forms of tinnitus. […] Muscular or myognathic tinnitus is identified by imparting an electrical charge to the chewing musculature, whereby the intensity and frequency of the symptoms of tinnitus can be altered. Myognathic tinnitus can substantially be caused to disappear when the tendon bundles of the middle ear musculature that operates the chain of auditory ossicles are surgically sectioned (tenotomy). The precise mechanism involved in this effect is still unclear.

[2] = system: cochlear post-synaptic tinnitus; settings: infusion; according to EP 0 542 689; cited from earlier work

CCN(CC)CCn1c(=O)c(Cc2ccc(OC)cc2)nc2ccccc21 [Caroverin, 1-diethylaminoethyl-3-(p-methoxybenzyl)-1,2-dihydro-quinoxaline-2-one]
response of muscular (myognathic) tinnitus [1]: not responsive | treatability of cochlear post-synaptic tinnitus [2]: treatable
